{
  "source": "patent US20180117080A1",
  "about": "“COMPOSITIONS AND METHODS FOR TREATING SKIN CONDITIONS” (priority 2015, published 2018)",
  "origin": "cited, not measured here",
  "data": [
    {"smiles": "[Cl-].[K+]", "note": "[KCl, Potassium Chloride]", "values": [
      {"measurement": "g/L Water Solubility 20c", "value": 344, "unit": "g/L"}
    ]}
  ]
}
